Measured values reported in publication doi:10.1101/2024.06.16.599186v1 (biorxiv, 2024).
Structures can show the parent of a compound that is named as a salt.

Target: MoGep4 (Pyricularia oryzae, UniProt G4N1T8)
Sequence (G4N1T8 1-216): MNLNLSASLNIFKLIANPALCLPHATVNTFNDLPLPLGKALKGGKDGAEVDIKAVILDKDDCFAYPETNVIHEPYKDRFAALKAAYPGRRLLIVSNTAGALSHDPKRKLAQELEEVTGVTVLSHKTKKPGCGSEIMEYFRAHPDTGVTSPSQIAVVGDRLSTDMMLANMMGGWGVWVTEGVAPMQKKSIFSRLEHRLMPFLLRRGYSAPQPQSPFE

`CCCCC(CC)CNC(=N)NC(=N)NCCCCCCNC(=N)NC(=N)NCC(CC)CCCC` (stereo not shown) [AXD, alexidine dihydrochloride] was tested, and the “% inhibition at 4 μM” value was 62.9%.
